Test results taken from patent US20160130352A1, “RHAMM, A CO-RECEPTOR AND ITS INTERACTIONS WITH OTHER RECEPTORS IN CANCER CELL MOTILITY AND THE IDENTIFICATION OF CANCER PROGNITOR CELL POPULATIONS” (THE REGENTS OF THE UNIVERSITY OF CALIFORNIA, priority 2006, published 2016).
Where two headings read alike, the source gives them in different places.

Columns and labels:
MDA-MB-231 cells = experiment: Time-lapse cinemicrography random motility; format: cell-based, human
Procedure: (§1) Random motility analyses were performed to quantify the effect of the blocking Rhamm and CD44 antibodies, HA binding peptide, hyaluronan, and the MEK inhibitor, PD098059 on cell motility. Cells were seeded on T-25 flasks (Costar, Cambridge. Mass.) at 1×10^5 cells/flask. Cells were incubated with anti-Rhamm antibody (30 μg/ml), anti-CD44 antibody (30 μg/ml), a mixture of anti-Rhamm (30 μg/ml) and anti-CD44 antibodies ([…]), HA binding peptide (1 μg/ml) or its scrambled control (1 μg/ml), and/or 50 μM PD098059 for 30 minutes prior to filming. Alternatively, cells were stimulated with 50 μg/L of HA immediately prior to filming. As a control, a mixture of mouse and rabbit IgG (30 μg/ml each), DMSO (for PD098059) or PBS (for HA) were used. Cell locomotion was monitored for a period of 6 hours using a 10× modulation objective (Zeiss, Germany) attached to a Zeiss Axiovert 100 inverted microscope equipped with Hoffman Modulation contrast optical filters (Greenvale, N.Y.) and a 37° C. heated stage. Cell images were captured with a CCD video camera module attached to a Hamamatsu CCD camera controller. Motility was assessed using Northern Exposure 2.9 image analysis software (Empix Imaging, Mississauga, Ontario). Nuclear displacement of 20-30 cells was measured and data were subjected to statistical analysis (see below). Each experiment was repeated at least three times. PD098059 MEK inhibitor was used to test the involvement of the MAP kinase pathway in the motility of these cells. The cells were incubated with the MEK1 inhibitor at 50 μM in complete culture medium 30 minutes before the beginning of motility filming. DMSO alone was used as a control. The results of motility analyses were expressed as means (μm/hour) means±standard deviations, unless otherwise indicated.

MCF7 cells = experiment: Time-lapse cinemicrography random motility; format: cell-based, human; settings: for motility: peptide 1 μg/ml, 30 minutes prior to filming
Procedure: as §1, with “Alternatively, cells were stimulated with 50 μg/L of HA immediately prior to filming.” left out

[1] = design: species or system humans; settings: human, in vivo, iv
[2] = Kinetics and tolerability of HA injected I.V. in rats; format: in vivo; settings: I.V. 1-12 mg/kg
[3] = design: species or system mice; settings: mouse, in vivo, iv
Description: J Am Chem Soc. 125(25): p. 7494-5, hereby incorporated by reference), MDA-MB-231 breast tumor xenografts which express high levels of Rhamm and CD44 (FIG. 2A) and the liver, whose endothelial cells express the HA endocytic receptor, Hare (See FIG. 13D and Weigel, P. H. and J. H. Yik, 2002. Glycans as endocytosis signals: the cases of the asialoglycoprotein and hyaluronan/chondroitin sulfate receptors. Biochim Biophys Acta. 1572(2-3): p. 341-63).

[4] = Pharmacokinetic parameters of HA in serum by route of administration (competitive binding ELISA); format: in vivo
Description: Table 2 below is a summary of the kinetic analysis of HA in serum by different routes of administration.

[5] = PD098059 50 μM and/or anti-Rhamm antibodies
[6] = serum starved 24-48 hours, 25-50 μg/ml exogenous HA
[7] = peptide 1 μg/ml, 30 minutes prior to filming

COc1cccc(-c2cc(=O)c3ccccc3o2)c1N [PD098059]
basal motility rate (MDA-MB-231 cells; [5]): significantly inhibited | basal motility (MCF7 cells; [5]): no effect

Hyaluronan [HA]
motility (MDA-MB-231 cells; [6]): significantly stimulated motility | motility rate (MCF7 cells; [6]): no effect | half-life [1]: up to 12 hrs | T1/2 (HA serum levels) ([1]; 1.5 mg/kg): 12 h | tolerability [2]: well tolerated | half-life [3]: up to 12 hrs | Cmax ([4]; Intravenous): 5096.00 µg/mL | Tmax ([4]; Intravenous): 12 h | Cmax ([4]; Oral): 0.15 µg/mL | Tmax ([4]; Oral): 36 h | Cmax ([4]; Subcutaneous): 1454.00 µg/mL | Tmax ([4]; Subcutaneous): 72 h

YKQKIKHVVKLK [HA-binding peptide]
motility (MDA-MB-231 cells; [7]): significantly reduced motility | motility (MCF7 cells): no effect

YLKQKKVKKHIV [scrambled control peptide]
motility (MDA-MB-231 cells; [7]): no effect | motility (MCF7 cells): no effect
